Measurements as given in US20050049278A1, “Benzo[1,3]dioxole compounds, pharmaceutical compositions thereof, and processes of making and using the same” (priority 2003, published 2005).
Like-named read-outs stand apart in the source and are kept apart here.

How the values were obtained:
HEK293 cells [1] = assay: Cell cycle analysis by FACS of HEK293 cells; assay type: cell-based; details: for Percent of Cells in G1 / Percent of Cells in G2/M / Percent of Cells in S: treated 16 to 24 hrs; for FACS profile / cell cycle effect: HEK293, FACS; for accumulation of cells in G2/M: HEK293, concentrations as in Table 1
Experimental: Fluorescence-activated cell sorting (FACS) analysis was used to examine the cell cycle state when the cells were incubated with compounds of formula (I) as well as several control compounds, including DMSO, noscapine (a known G2/M inhibitor), and colchicine (a known G2/M inhibitor).
In particular, HEK293 cells were cultured in DMEM media (Celigro) supplemented with 10% Fetal Bovine Serum (Tissue Culture Biologicals) and 1× Penicillin/Streptomycin/Glutamine (Gibco). The cells were grown at 37° C. with 5% CO2, plated in six-well plates at 2.5×10^6 cells/well, and treated for 16 to 24 hrs with the compounds at the concentrations shown in Table 1, below. The cells were then triturated off the bottom of the wells, washed 1× with PBS, then fixed with 70% ethanol, and stored at 4° C. before staining and FACS analysis.
The DNA content of cells was determined using a FacsVantage SE flow cytometry system (Becton Dickinson, San Jose, Calif.) and a Cellular DNA Flow Cytometric Analysis Kit (Roche Applied Science, Indianapolis, Ind.). Cell cycle analysis was performed using Cylchred 1.0.2 software.

[2] = system: HTS-tubulin (90% tubulin plus 10% microtubule associated proteins); assay: Microtubule polymerization assay (turbidity at 340 nm); assay type: biochemical; details: absorbance at 340 nm, 30 minutes, 37° C., FIG. 3
Experimental: Microtubule polymerization assays were performed to determine if compounds, such as compound 9a, cause G2/M cell cycle arrest by affecting microtubule dynamics. A microtubule polymerization assay was performed that takes advantage of the observation that there is an increase in turbidity that can be measured at 340 nm as tubulin heterodimers polymerize to form microtubules. In brief, HTS-tubulin (90% tubulin plus 10% microtubule associated proteins; Cytoskeleton Inc., Denver, Colo.) was resuspended in G-PEM buffer (80 mM Pipes, pH 6.9; 2 mM MgCl2; 0.5 mM EDTA; 1 mM GTP) to 10 mg/ml. This suspension was clarified by centrifugation for 10 min. at 225,000×g. The supernatant was then diluted with G-PEM buffer to 2 mg/ml and 100 μl of this solution was added to the appropriate number of ½-area wells in a 96-well format (Corning). Each compound (10 μl of a 10× final concentration in 10% DMSO) was added to the wells in duplicate and immediately put into a pre-warmed (37° C.) Spectromax 190 plate reader. The absorbance was read at 340 nm immediately (time=0) and every minute thereafter for 30 minutes.
The tubulin mix was incubated in the presence of paclitaxel (a microtubule stabilizing agent), nocodazole (a microtubule destabilizing agent), vehicle control (DMSO), or varying concentrations of compound 9a (FIG. 3).

HEK293 cells [3] = assay: HEK293 cell viability, CellTiter 96 Aqueous One Solution Cell Proliferation assay; assay type: cell-based; details: Homo sapiens, HEK293, 48 h
Experimental: The effect of various doses of compounds 5a, 5a,b, and 9a on the viability of HEK293 cells was examined using the CellTiter 96 Aqueous One Solution Cell Proliferation assay (Promega). The HEK293 cells were cultured in DMEM media (Cellgro) or phenol red-free DMEM (Gibco) supplemented with 10% Fetal Bovine Serum (Tissue Culture Biologicals) and 1× Penicillin/Streptomycin/Glutamine (Gibco). The cells were grown at 37° C. with 5% CO2. HEK293 cells were seeded into each well of a 96-well plate (5000 cells/well) and incubated overnight to allow the cells to attach. The culture media was removed and replaced with 100 μl of phenol red-free media containing the compounds 5a, 5a,b, and 9a at various concentrations. The cells were allowed to grow in the presence of the compounds for 48 hrs. At the end of the treatment, 20 μl of CellTiter 96 Aqueous One Solution reagent was added directly into each well, and the cells were incubated at 37° C. for 2 hrs. This reagent converts to a form that absorbs light at 490 nm by living cells. Thus, absorbance at 490 nm is proportional to the number of viable cells. The 490 nm absorbance was measured on a BioRad plate reader. Control wells containing no cells were included in this assay to correct for background absorbance.

[4] = system: phytohemagglutinin (PHA)-stimulated peripheral blood lymphocytes (PBLs); assay: Cell cycle analysis on phytohemagglutinin-stimulated peripheral blood lymphocytes; assay type: cell-based; details: PHA-stim. PBL (1 μg/ml PHA), 25 μM, 16 to 24 hrs
Experimental: (§1) The effects of compounds 5a,b on the cell cycle were further examined on phytohemagglutinin (PHA)-stimulated and non-stimulated peripheral blood lymphocytes (PBLs).
(§2) PBLs were cultured in DMEM media (Celigro) supplemented with 10% Fetal Bovine Serum (Tissue Culture Biologicals) and 1× Penicillin/Streptomycin/Glutamine (Gibco). The cells were grown at 37° C. with 5% CO2, plated in six-well plates at 2.5-5×10^6 cells/well, and treated for 16 to 24 hrs with the compounds at the concentrations shown in Table 2, below, with or without 1 μg/ml PHA (Sigma). The cells were then triturated off the bottom of the wells, washed 1× with PBS, then fixed with 70% ethanol, and stored at 4° C. before staining and FACS analysis.

[5] = system: non-stimulated peripheral blood lymphocytes (PBLs); assay: Cell cycle analysis on non-stimulated peripheral blood lymphocytes; assay type: cell-based; details: PBL (non-stimulated), 25 μM, 16 to 24 hrs
Experimental: as §1, §2

topoisomerase I = biological target: T1, topoisomerase I (Homo sapiens, UniProt P11387); assay: Topoisomerase I assay (supercoiled pBluescript DNA, agarose gel); assay type: biochemical; details: in vitro, FIG. 2
T1 construct: purchased Sigma-Aldrich
T1 sequence (P11387 1-765): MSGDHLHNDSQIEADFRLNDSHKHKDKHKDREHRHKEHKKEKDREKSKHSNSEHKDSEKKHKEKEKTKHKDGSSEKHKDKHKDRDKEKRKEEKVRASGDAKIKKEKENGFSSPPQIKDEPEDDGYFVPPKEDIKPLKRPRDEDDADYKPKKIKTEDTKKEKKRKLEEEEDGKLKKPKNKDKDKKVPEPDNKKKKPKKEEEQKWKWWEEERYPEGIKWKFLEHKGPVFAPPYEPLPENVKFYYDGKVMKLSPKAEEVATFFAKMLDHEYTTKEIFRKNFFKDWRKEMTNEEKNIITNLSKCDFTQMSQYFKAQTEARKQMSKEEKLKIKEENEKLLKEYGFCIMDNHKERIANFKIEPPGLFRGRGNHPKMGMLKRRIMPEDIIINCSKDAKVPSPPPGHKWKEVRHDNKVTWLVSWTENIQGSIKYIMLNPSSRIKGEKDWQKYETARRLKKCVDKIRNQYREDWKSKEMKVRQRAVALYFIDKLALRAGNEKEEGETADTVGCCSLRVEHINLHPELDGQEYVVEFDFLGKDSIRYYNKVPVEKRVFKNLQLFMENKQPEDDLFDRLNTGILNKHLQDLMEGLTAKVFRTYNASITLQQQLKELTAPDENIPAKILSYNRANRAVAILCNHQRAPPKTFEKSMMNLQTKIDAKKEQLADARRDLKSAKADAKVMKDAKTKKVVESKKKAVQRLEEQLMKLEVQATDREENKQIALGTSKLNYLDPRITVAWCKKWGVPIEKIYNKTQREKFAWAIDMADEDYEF
Experimental: The ability of compounds that cause S-phase cell cycle arrest to inhibit topoisomerase I and topoisomerase II was examined. Analysis of topoisomerase activity was performed in 20 μl reactions with either topoisomerase I reaction buffer (10 mM TRIS-HCl, pH 7.5; 100 mM NaCl; 1 mM 2-mercaptoethanol) or topoisomerase II reaction buffer (50 mM Tris-HCl, pH 8; 120 mM KCl; 10 mM MgCl2; 0.5 mM dithiothreitol; 0.5 mM ATP; 30 μg BSA/ml) containing 125 ng supercoiled pBluescript DNA and either 2 U topoisomerase I (Sigma-Aldrich) or topoisomerase II (Topogen Inc.). After reaction at 37° C. for 20 minutes, the reactions were terminated through the addition of sodium dodecyl sulfate to 1% w/v and heating to 65° C. for 10 minutes. Proteinase K was then added to 10 μg/ml and digestion was allowed to proceed at 37° C. for 20 minutes before electrophoresis of the DNA in 0.8% agarose gels containing 0.5 μg/ml ethidium bromide for 18 hours at 75V in 0.5×TBE buffer. DNA was then visualized using a UV-transilluminator and the image was captured using a BioRad CCD camera and gel documentation system.

## COc1ccc2c(c1OCc1ccccc1)C(=O)OC2[C@H]1c2c(cc3c(c2OC)OCO3)CCN1C (some centres unmarked) [6a,b]
HEK293 cells [1]; HEK293, 50 μM
  Percent of Cells in G1: 12.1%
  Percent of Cells in G2/M: 16.7%
  Percent of Cells in S: 71.2%
HEK293 cells [1]
  FACS profile / cell cycle effect: accumulating in S-phase

## COc1ccc2c(c1C#N)C(=O)O[C@@H]2[C@H]1c2c(cc3c(c2OC)OCO3)CCN1C [Compound 10, 5-methoxy-1-(4-methoxy-6-methyl-5,6,7,8-tetrahydro-[1,3]dioxolo-[4,5-g]isoguinolin-5-yl)-3-oxo-1,3-dihydro-isobenzofuran-4-carbonitrile]
HEK293 cells [1]; HEK293, 50 μM
  Percent of Cells in G1: 2%
  Percent of Cells in G2/M: 89.2%
  Percent of Cells in S: 8.8%
HEK293 cells [1]
  accumulation of cells in G2/M: ~90%

## COC(=O)Nc1nc2ccc(C(=O)c3cccs3)cc2[nH]1 [Nocodazole, reference compound]
[2]
  effect on microtubule polymerization: decreased microtubule polymerization
HEK293 cells [3]; read-out: EC50
  EC50: < 20 nM

## COc1cc(COc2c(OC)ccc3c2C(=O)OC3[C@H]2c3c(cc4c(c3OC)OCO4)CCN2C)cc(OC)c1OC (some centres unmarked) [Compound 5a,b]
HEK293 cells [1]; HEK293, 50 μM
  Percent of Cells in G1: 13.1%
  Percent of Cells in G2/M: 6.3%
  Percent of Cells in S: 80.7%
HEK293 cells [1]
  FACS profile / cell cycle effect: accumulate more cells in S-phase than 6a,b
[4]
  Percent of Cells in G1: 69.3%
  Percent of Cells in G2/M: 5.4%
  Percent of Cells in S: 25.3%
HEK293 cells [3]
  EC50: 400 nM
HEK293 cells [3]; text summary
  EC50: < 1000 nM
[5]
  Percent of Cells in G1: 91.6%
  Percent of Cells in G2/M: 1.5%
  Percent of Cells in S: 6.8%

## CC(=O)O[C@H]1C(=O)[C@@]2(C)[C@H]([C@H](OC(=O)c3ccccc3)[C@]3(O)C[C@H](OC(=O)[C@H](O)[C@@H](NC(=O)c4ccccc4)c4ccccc4)C(C)=C1C3(C)C)[C@]1(OC(C)=O)CO[C@@H]1C[C@@H]2O [Paclitaxel, reference compound]
[2]
  effect on microtubule polymerization: increased microtubule polymerization
HEK293 cells [3]; read-out: EC50
  EC50: < 100 nM

## COc1cc(COc2c(OC)ccc3c2C(=O)O[C@@H]3[C@H]2c3c(cc4c(c3OC)OCO4)CCN2C)cc(OC)c1OC [Compound 5a]
HEK293 cells [3]; read-out: EC50
  EC50: 300 nM
HEK293 cells [3]; text summary, read-out: EC50
  EC50: < 1000 nM

## COc1cc([C@@H]2c3cc4c(cc3[C@@H](O[C@@H]3O[C@@H]5CO[C@@H](C)O[C@H]5[C@H](O)[C@H]3O)[C@H]3COC(=O)[C@H]23)OCO4)cc(OC)c1O [etoposide]
Topoisomerase I
  inhibition of topoisomerase I activity: neither etoposide nor noscapine inhibited

## COc1cc2c(c(OC)c1OC)-c1ccc(OC)c(=O)cc1[C@@H](NC(C)=O)CC2 [colchicine, reference compound]
HEK293 cells [1]; HEK293, 10 μM
  Percent of Cells in G1: 2.7%
  Percent of Cells in G2/M: 83.4%
  Percent of Cells in S: 13.9%

## COc1ccc2c(c1S)C(=O)O[C@@H]2[C@H]1c2c(cc3c(c2OC)OCO3)CCN1C [Compound 13]
HEK293 cells [1]; HEK293, 5 μM
  Percent of Cells in G1: 3.2%
  Percent of Cells in G2/M: 89.6%
  Percent of Cells in S: 7.2%
HEK293 cells [1]
  accumulation of cells in G2/M: ~90%

## COc1ccc2c(c1)C(=O)O[C@@H]2[C@H]1c2c(cc3c(c2OC)OCO3)CCN1C [Compound 12]
HEK293 cells [1]; HEK293, 1 μM
  Percent of Cells in G1: 3.8%
  Percent of Cells in G2/M: 89.8%
  Percent of Cells in S: 6.4%
HEK293 cells [1]
  accumulation of cells in G2/M: ~90%
